Target: T1, GLUT1 (Homo sapiens, UniProt P11166)
T1 sequence (P11166 1-492): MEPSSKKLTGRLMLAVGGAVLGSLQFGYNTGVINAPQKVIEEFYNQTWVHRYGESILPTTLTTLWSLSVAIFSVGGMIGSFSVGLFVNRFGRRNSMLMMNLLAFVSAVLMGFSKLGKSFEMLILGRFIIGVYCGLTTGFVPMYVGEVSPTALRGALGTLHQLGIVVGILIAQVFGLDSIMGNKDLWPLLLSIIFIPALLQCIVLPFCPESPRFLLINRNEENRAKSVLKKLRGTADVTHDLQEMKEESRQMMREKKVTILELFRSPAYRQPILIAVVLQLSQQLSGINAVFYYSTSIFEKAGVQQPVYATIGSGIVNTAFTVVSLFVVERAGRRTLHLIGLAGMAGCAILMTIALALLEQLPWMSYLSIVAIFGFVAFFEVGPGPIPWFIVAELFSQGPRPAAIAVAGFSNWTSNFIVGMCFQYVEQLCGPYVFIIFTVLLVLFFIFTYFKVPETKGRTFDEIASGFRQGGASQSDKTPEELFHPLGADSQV
Test: Indirect measurement of GLUT1 activity by quantification of intracellular ATP levels (glucose induced ATP increase)
Type: cell-based
Parameters: endogenous in cells; host or cells: DLD1 or CHO-K1
Conditions: read-out: IC50 regarding glucose induced ATP increase (GLUT1 inhibition)
Procedure, shortened: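 Intracellular ATP was measured by CellTiter-Glo luminescence as an indirect readout of transport: glucose-driven for GLUT1, fructose-driven for GLUT2. DLD1 or CHO-K1 cells were used alongside an oxidative phosphorylation inhibitor. Beforehand, cells were held overnight in glucose-free 1% FCS medium to deplete ATP.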

Row | Structure (SMILES) | IC50 [µM]
1 | Cc1nn(Cc2ccc(F)cc2)c(C)c1NC(=O)c1cc(C(F)(F)F)nc2ccc(NC(=O)C(N)=O)cc12 [Example 1242] | 1.56
2 | Cc1nn(Cc2ccc(C(F)(F)F)cc2)c(C)c1NC(=O)c1cc(C(F)(F)F)nc2c(Cl)cc(Cl)cc12 [Example 1243] | 1.59
3 | Cc1nn(Cc2cc(F)cc(F)c2)c(C)c1NC(=O)c1cc(C(F)(F)F)nc2c(Cl)cc(Cl)cc12 [Example 1244] | 1.59
4 | COc1cc(C(=O)Nc2c(C)nn(Cc3ccc(F)cc3)c2C(=O)N(C)C)c2ccccc2n1 [Example 1245] | 1.6
5 | Cc1nn(Cc2ccc(C(=O)NCCO)cn2)c(C)c1NC(=O)c1cc(C(N)=O)nc2ccc(F)cc12 [Example 1246] | 1.66
6 | CNC(=O)N1CCC(Cn2nc(C)c(NC(=O)c3cc(C(N)=O)nc4ccccc34)c2C)CC1 [Example 1247] | 1.67
7 | COc1cc(C(=O)Nc2c(C)nn(Cc3ncccc3C)c2C)c2ccccc2n1 [Example 1248] | 1.67
8 | Cc1nn(Cc2ccc(F)cc2)c(C)c1NC(=O)c1c2c(nc3ccccc13)CCC2 [Example 1249] | 1.67
9 | Cc1nn(Cc2ccc(F)cc2)c(C(=O)N(C)C)c1NC(=O)c1cc(C(N)=O)nc2ccccc12 [Example 1250] | 1.67
10 | Cc1nn(Cc2ccc(C(=O)NCC3CCCCC3)cc2)c(C)c1NC(=O)c1cc(C(F)(F)F)nc2ccc(Br)cc12 [Example 1251] | 1.87
11 | Cc1cnc2ccccc2c1C(=O)Nc1c(C)nn(Cc2ccc(F)cc2)c1C [Example 1252] | 1.87
12 | CNC(=O)c1nn(Cc2ccc(F)cc2)c(C)c1NC(=O)c1cc(OC)nc2ccccc12 [Example 1253] | 1.97
13 | Cc1nn(Cc2ccc(CC(=O)NCCN(C)C)cc2)c(C)c1NC(=O)c1cc(C(F)(F)F)nc2ccc(Br)cc12 [Example 1254] | 1.98
14 | CCOC(=O)c1c(NC(=O)c2cc(C(F)(F)F)nc3ccc(Br)cc23)c(C)nn1Cc1ccc(F)cc1 [Example 1255] | 2.01
15 | Cc1nn(Cc2cc(F)cc(F)c2)c(C)c1NC(=O)c1cc(C(F)(F)F)nc2ccc(Br)cc12 [Example 1256] | 2.04
16 | Cc1nn(Cc2ccc(F)cc2)c(C)c1NC(=O)c1cc(C(F)(F)F)nc2ccc(NS(C)(=O)=O)cc12 [Example 1257] | 2.05
17 | CNC(=O)c1c(NC(=O)c2cc(C(N)=O)nc3ccccc23)c(C)nn1Cc1ccc(F)cc1 [Example 1258] | 2.06

Row | Structure (SMILES) | IC50 [µM]
18 | Cc1c(NC(=O)c2cc(C(F)(F)F)nc3ccc(Br)cc23)c(C(=O)N(C)C)nn1Cc1ccc(F)cc1 [Example 1259] | 2.1
19 | Cc1nn(Cc2ccc(F)cc2)c(C)c1NC(=O)c1cc(O)nc2ccccc12 [Example 1260] | 2.17
20 | Cc1ccc2nc(C)cc(C(=O)Nc3c(C)nn(Cc4ccccn4)c3C)c2c1 [Example 1261] | 2.29
21 | Cc1nn(CC2CCOCC2)c(C)c1NC(=O)c1cc(C(F)(F)F)nc2cc(F)c(F)cc12 [Example 1262] | 2.29
22 | Cc1nn(Cc2ccc(C(=O)NCC(O)CO)cn2)c(C)c1NC(=O)c1cc(C(F)(F)F)nc2ccc(Br)cc12 (stereo not shown) [Example 1263] | 2.32
23 | Cc1nc2ccccc2c(C(=O)Nc2c(C)nn(Cc3ccc(F)cc3)c2C)c1C#N [Example 1264] | 2.38
24 | COc1cc(C(=O)Nc2c(C(=O)N(C)C)nn(Cc3ccc(F)cc3)c2C)c2ccccc2n1 [Example 1265] | 2.48
25 | Cc1nn(C[C@@H]2CCC(=O)N2)c(C)c1NC(=O)c1cc(C(F)(F)F)nc2ccc(Br)cc12 [Example 1266] | 2.49
26 | Cc1nn(Cc2ccc(F)cc2)c(C)c1NC(=O)c1cc(C(F)(F)F)nc2ccc(C(=O)O)cc12 [Example 1267] | 2.71
27 | Cc1nn(Cc2ccc(F)cc2)c(C)c1NC(=O)c1cc(C(F)(F)F)nc2c(C#N)cccc12 [Example 1268] | 2.85
28 | COc1cc(C(=O)Nc2c(C)nn(Cc3ccc(C(F)(F)F)cc3)c2C)c2ccccc2n1 [Example 1269] | 2.89
29 | COc1ccccc1Cn1nc(C)c(NC(=O)c2cc(C(F)(F)F)nc3cc(F)c(F)cc23)c1C [Example 1270] | 2.89
30 | Cc1c(NC(=O)c2cc(C(F)(F)F)nc3ccc(Br)cc23)c(C(=O)O)nn1Cc1ccc(F)cc1 [Example 1271] | 3.06
31 | Cc1nn(Cc2ccc(F)cc2)c(C)c1NC(=O)c1c(C)c(O)nc2ccccc12 [Example 1272] | 3.18
32 | COc1cc(C(=O)Nc2c(C)nn(Cc3c(C)noc3C)c2C)c2ccccc2n1 [Example 1273] | 3.37
33 | COc1ccccc1Cn1nc(C)c(NC(=O)c2cc(C(F)(F)F)nc3ccc(Br)cc23)c1C [Example 1274] | 3.41
34 | Cc1nn(Cc2ccc(C(=O)O)cn2)c(C)c1NC(=O)c1cc(C(N)=O)nc2ccc(F)cc12 [Example 1275] | 3.5

Further lines, results first:

Row | IC50 [µM] | Structure (SMILES)
35 | 3.81 | Cc1nn(Cc2ccc(F)cc2)c(C)c1NC(=O)c1cc(C(F)(F)F)nc2cc(C(F)(F)F)ccc12 [Example 1276]
36 | 3.85 | Cc1cc(C(=O)Nc2c(C)nn(Cc3ccc(F)cc3)c2C)c2ccc(Br)cc2n1 [Example 1277]
37 | 3.91 | Cc1ccc2c(C(=O)Nc3c(C)nn(Cc4ccc(F)cc4)c3C)cc(C)nc2c1 [Example 1278]
38 | 3.93 | Cc1nn(CCN2CCN(C)CC2)c(C)c1NC(=O)c1cc(C(F)(F)F)nc2ccc(Br)cc12 [Example 1279]
39 | 5.19 | Cc1ccc2nc(C)cc(C(=O)Nc3c(C)nn(Cc4cc(F)ccc4F)c3C)c2c1 [Example 1281]
40 | 6.02 | Cc1nn(CCc2cccc(F)c2)c(C)c1NC(=O)c1cc(C(F)(F)F)nc2ccc(Br)cc12 [Example 1282]
41 | 6.25 | Cc1ccc2nc(C)cc(C(=O)Nc3c(C)nn(Cc4cccc(C#N)c4)c3C)c2c1 [Example 1283]
42 | 6.25 | COc1cc(C(=O)Nc2c(C)nn(Cc3cc(F)cc(F)c3)c2C)c2ccccc2n1 [Example 1284]
43 | 6.25 | Cc1ccc2nc(C)cc(C(=O)Nc3c(C)nn(Cc4ncccc4C)c3C)c2c1 [Example 1285]
44 | 6.25 | COc1cc(C(=O)Nc2c(C)nn(Cc3cccc(C#N)c3)c2C)c2ccccc2n1 [Example 1286]
45 | 6.25 | Cc1ccc2nc(C)cc(C(=O)Nc3c(C)nn(Cc4ccccc4OC(F)(F)F)c3C)c2c1 [Example 1287]
46 | 6.25 | Cc1nn(Cc2ccccc2OC(F)(F)F)c(C)c1NC(=O)c1cc(C(F)(F)F)nc2c(Cl)cc(Cl)cc12 [Example 1288]
47 | 6.25 | COc1cc(C(=O)Nc2c(C)nn(Cc3ccccc3OC(F)(F)F)c2C)c2ccccc2n1 [Example 1289]
48 | 7.11 | Cc1ccc2nc(C)cc(C(=O)Nc3c(C)nn(Cc4ccc(C(C)(C)C)cc4)c3C)c2c1 [Example 1290]
49 | 7.38 | Cc1nn(Cc2ccc(C(=O)NCCN(C)C)cn2)c(C)c1NC(=O)c1cc(C(F)(F)F)nc2ccc(Br)cc12 [Example 1292]
50 | 7.79 | COc1cc(Cn2nc(C)c(NC(=O)c3cc(C)nc4ccc(C)cc34)c2C)cc(OC)c1 [Example 1293]
51 | 8.12 | Cc1nn(Cc2ccc(F)cc2)c(C)c1NC(=O)c1cc(C(F)(F)F)nc2ccc(C(N)=O)cc12 [Example 1294]

Row | IC50 [µM] | Structure (SMILES)
52 | 8.15 | Cc1nn(Cc2cc(F)ccc2F)c(C)c1NC(=O)c1cc(C(F)(F)F)nc2c(Cl)cc(Cl)cc12 [Example 1295]
53 | 11.1 | Cc1ccc2nc(C)cc(C(=O)Nc3c(C)nn(Cc4cc(F)cc(F)c4)c3C)c2c1 [Example 1296]
54 | 11.1 | Cc1nn(Cc2cccc(C(F)(F)F)c2)c(C)c1NC(=O)c1cc(C(F)(F)F)nc2ccc(Br)cc12 [Example 1297]
55 | 11.1 | Cc1ccc2nc(C)cc(C(=O)Nc3c(C)nn(Cc4ccccc4C(F)(F)F)c3C)c2c1 [Example 1298]
56 | 11.1 | Cc1nn(Cc2ccccc2C(F)(F)F)c(C)c1NC(=O)c1cc(C(F)(F)F)nc2c(Cl)cc(Cl)cc12 [Example 1299]
57 | 11.1 | Cc1ccc2nc(C)cc(C(=O)Nc3c(C)nn(Cc4cccc(C(F)(F)F)c4)c3C)c2c1 [Example 1300]
58 | 11.1 | Cc1nn(Cc2ccccc2C(F)(F)F)c(C)c1NC(=O)c1cc(C(F)(F)F)nc2ccc(Br)cc12 [Example 1301]
59 | 11.1 | Cc1nn(Cc2ccc(C(F)(F)F)cc2)c(C)c1NC(=O)c1cc(C(F)(F)F)nc2ccc(Br)cc12 [Example 1302]
60 | 11.1 | COc1cc(C(=O)Nc2c(C)nn(Cc3cccc(C(F)(F)F)c3)c2C)c2ccccc2n1 [Example 1303]
61 | 11.1 | COc1cc(C(=O)Nc2c(C)nn(Cc3cc(F)ccc3F)c2C)c2ccccc2n1 [Example 1304]
62 | 11.1 | COc1cc(C(=O)Nc2c(C)nn(Cc3ccccc3C(F)(F)F)c2C)c2ccccc2n1 [Example 1305]
63 | 11.1 | Cc1nn(Cc2cccc(C(F)(F)F)c2)c(C)c1NC(=O)c1cc(C(F)(F)F)nc2c(Cl)cc(Cl)cc12 [Example 1306]
64 | 14.3 | Cc1nn(Cc2ccc(F)cc2)c(C)c1NC(=O)c1cc(C(F)(F)F)nc2c(C(F)(F)F)cccc12 [Example 1307]
65 | 16.9 | Cc1cc(C(=O)Nc2c(C)nn(Cc3ccc(F)cc3)c2C)c2cccc(C#N)c2n1 [Example 1308]
66 | 17.5 | Cc1cc(C(=O)Nc2c(C)nn(Cc3ccc(F)cc3)c2C)c2ccc(C#N)cc2n1 [Example 1309]
67 | 0.0263 | Cc1c(NC(=O)c2cc(C(F)(F)F)nc3ccc(Br)cc23)c(C#N)nn1Cc1ccc(F)cc1 [Example 1338]
